Reference: patent publication US20070128217A1 (priority 2003, published 2007)

What was measured:
[1] = test system: rabbit serum obtained by immunizing a rabbit with the SARS-CoV strain Frankfurt 1; assay type: binding; set-up: Binding of a rabbit serum to linear peptides / Binding of a rabbit serum to looped peptides / Rabbit serum linear peptides / Rabbit serum looped peptides / Binding of a rabbit serum to linear peptides of protein N of SARS-CoV Urbani (Rabbit serum linear peptides) / Binding of a rabbit serum to looped/cyclic peptides of protein N of SARS-CoV Urbani (Rabbit serum looped peptides): unit not given here
[2] = test system: antibodies in sera from SARS patients (sera 1a, 1b, 2, 6, 37, 62, London, SARS-yellow, SARS-green); assay type: binding, human; set-up: Binding of serum 6 to linear peptides of protein X1 of SARS-CoV Urbani / Binding of serum 37 to linear peptides of protein X1 of SARS-CoV Urbani / Binding of serum 6 to looped/cyclic peptide (PEPSCAN-ELISA) / Binding of serum 37 to looped/cyclic peptide (PEPSCAN-ELISA) / Binding of serum 37 to looped/cyclic peptides of protein X1 of SARS-CoV Urbani / Binding of serum 6 to linear peptides of protein X2 / Binding of serum 37 to linear peptides of protein X2 / Binding of serum 37 to looped/cyclic peptides of protein X2 of SARS-CoV Urbani / Binding of serum 6 to linear peptides of protein M of SARS-CoV Urbani / Binding of serum 37 to linear peptides of protein M of SARS-CoV Urbani / Binding of serum 6 to looped/cyclic peptides of protein M of SARS-CoV Urbani / Binding of serum 37 to looped/cyclic peptides of protein M of SARS-CoV Urbani / Binding of serum 6 to linear peptides of protein X3 of SARS-CoV Urbani / Binding of serum 37 to linear peptides of protein X3 of SARS-CoV Urbani / Binding of serum 37 to looped/cyclic peptides of protein X3 of SARS-CoV Urbani / Binding of serum 6 to linear peptides of protein X4 of SARS-CoV Urbani / Binding of serum 37 to linear peptides of protein X4 of SARS-CoV Urbani / Binding of serum 37 to looped/cyclic peptides of protein X4 of SARS-CoV Urbani / Binding of serum 6 to linear peptides of protein X5 of SARS-CoV Urbani / Binding of serum 37 to linear peptides of protein X5 of SARS-CoV Urbani / Binding of serum 37 to looped/cyclic peptides of protein X5 of SARS-CoV Urbani / Binding of serum 6 to linear peptides of protein N of SARS-CoV Urbani / Binding of serum 37 to linear peptides of protein N of SARS-CoV Urbani / Binding of serum 6 to linear peptide (PEPSCAN-ELISA) / Binding of serum 1a to looped/cyclic peptides of protein N of SARS-CoV Urbani / Binding of serum 1b to looped/cyclic peptides of protein N of SARS-CoV Urbani / Binding of serum 2 to looped/cyclic peptides of protein N of SARS-CoV Urbani / Binding of serum 6 to looped/cyclic peptides of protein N of SARS-CoV Urbani / Binding of serum 37 to looped/cyclic peptides of protein N of SARS-CoV Urbani / Binding of serum 62 to looped/cyclic peptides of protein N of SARS-CoV Urbani / Binding of serum London to looped/cyclic peptides of protein N of SARS-CoV Urbani / Binding of serum SARS-green to looped/cyclic peptides of protein N of SARS-CoV Urbani: unit not given here
[3] = test system: recombinant human anti-SARS-CoV antibody 03-018; assay type: binding; set-up: Binding of antibody 03-018 to linear peptides of the N protein of SARS-CoV Urbani / Binding of antibody 03-018 to looped/cyclic peptides of the N protein of SARS-CoV Urbani: unit not given here
[4] = test system: control sera (pooled serum of ten healthy LUMC hospital workers; commercial negative donor pooled serum from the Dutch bloodbank); assay type: binding, human; set-up: Binding of Control serum LUMC to linear peptides / Binding of Control serum Blood-bank to linear peptides / Binding of Control serum LUMC to looped peptides / Binding of Control Serum Blood-Bank to Looped peptides / Binding of Control serum LUMC to linear peptides of the protein M of SARS-CoV Urbani / Binding of Control serum Blood-bank to linear peptides of the protein M of SARS-CoV Urbani / Binding of Control serum LUMC to looped peptides of the protein M of SARS-CoV Urbani / Binding of Control Serum Blood-Bank to Looped peptides of the protein M of SARS-CoV Urbani: unit not given here

| Sequence | Binding of a rabbit serum to linear peptides of protein N of SARS-CoV Urbani (Rabbit serum linear peptides) [1] | Binding of a rabbit serum to looped/cyclic peptides of protein N of SARS-CoV Urbani (Rabbit serum looped peptides) [1] | Binding of serum 1a to linear peptides of protein N of SARS-CoV Urbani [2] | Binding of serum 1a to looped/cyclic peptides of protein N of SARS-CoV Urbani [2] | Binding of serum 1b to linear peptides of protein N of SARS-CoV Urbani [2] | Binding of serum 1b to looped/cyclic peptides of protein N of SARS-CoV Urbani [2] | Binding of serum 2 to linear peptides of protein N of SARS-CoV Urbani [2] | Binding of serum 2 to looped/cyclic peptides of protein N of SARS-CoV Urbani [2] | Binding of serum 6 to linear peptides of protein N of SARS-CoV Urbani [2] | Binding of serum 6 to looped/cyclic peptides of protein N of SARS-CoV Urbani [2] | Binding of serum 37 to linear peptides of protein N of SARS-CoV Urbani [2] | Binding of serum 37 to looped/cyclic peptides of protein N of SARS-CoV Urbani [2] | Binding of serum 62 to linear peptides of protein N of SARS-CoV Urbani [2] | Binding of serum 62 to looped/cyclic peptides of protein N of SARS-CoV Urbani [2] | Binding of serum London to linear peptides of protein N of SARS-CoV Urbani [2] | Binding of serum London to looped/cyclic peptides of protein N of SARS-CoV Urbani [2] | Binding of serum SARS-green to looped/cyclic peptides of protein N of SARS-CoV Urbani [2] | Binding of serum SARS-yellow to looped/cyclic peptides of protein N of SARS-CoV Urbani [2] | Binding of antibody 03-018 to linear peptides of the N protein of SARS-CoV Urbani [3] | Binding of antibody 03-018 to looped/cyclic peptides of the N protein of SARS-CoV Urbani [3] | other results |
| --- | --- | --- | --- | --- | --- | --- | --- | --- | --- | --- | --- | --- | --- | --- | --- | --- | --- | --- | --- | --- | --- |
| GKEELRFPRGQGVPI | 0.1 | 0.6 | 0.3 | 0.5 | 0.1 | 0.4 | 0.3 | 0.8 | 0.2 | 0.3 | 0.7 | 0.9 | 0.7 | 1.1 | 0.5 | 0.6 | 0.9 | 0.7 | 0.1 | 0.3 | Binding of serum SARS-green to linear peptides of protein N of SARS-CoV Urbani [2]: 0.6; Binding of serum SARS-yellow to linear peptides of protein N of SARS-CoV Urbani [2]: 0.6; Binding of Control Serum Blood-Bank to Looped peptides [4]: 0.9; Binding of Control serum Blood-bank to linear peptides [4]: 0.9; Binding of Control serum LUMC to linear peptides [4]: 0.8; Binding of Control serum LUMC to looped peptides [4]: 0.9 |
| GKGQQQQGQTVTKKS | 0.2 | 0.4 | – | 1.4 | – | 0.6 | – | 0.7 | – | 0.4 | – | 0.5 | – | 0.6 | – | 0.4 | 0.6 | 0.5 | 0.1 | 0.2 | Binding of serum 1a to linear peptide (PEPSCAN-ELISA) [2]: 0.3; Binding of serum 1b to linear peptide (PEPSCAN-ELISA) [2]: 0.1; Binding of serum 2 to linear peptide (PEPSCAN-ELISA) [2]: 0.3; Binding of serum 6 to linear peptide (PEPSCAN-ELISA) [2]: 0.3; Binding of serum 37 to linear peptide (PEPSCAN-ELISA) [2]: 0.7; Binding of serum 62 to linear peptide (PEPSCAN-ELISA) [2]: 0.7; Binding of serum London to linear peptide (PEPSCAN-ELISA) [2]: 0.5; Binding of serum SARS-green to linear peptide (PEPSCAN-ELISA) [2]: 0.2; Binding of serum SARS-yellow to linear peptide (PEPSCAN-ELISA) [2]: 0.7; Binding of Control Serum Blood-Bank to Looped peptides [4]: 0.6; Binding of Control serum Blood-bank to linear peptides [4]: 0.9; Binding of Control serum LUMC to linear peptides [4]: 1.0; Binding of Control serum LUMC to looped peptides [4]: 0.7 |
| GKMKELSPRWYFYYL | 0.1 | 0.7 | 0.2 | 0.3 | 0.1 | 0.2 | 0.1 | 0.5 | 0.1 | 0.4 | 0.5 | 0.8 | 0.5 | 0.8 | 0.4 | 0.7 | 0.4 | 0.6 | 0.1 | 0.3 | Binding of serum SARS-green to linear peptides of protein N of SARS-CoV Urbani [2]: 0.2; Binding of serum SARS-yellow to linear peptides of protein N of SARS-CoV Urbani [2]: 0.6; Binding of Control Serum Blood-Bank to Looped peptides [4]: 0.8; Binding of Control serum Blood-bank to linear peptides [4]: 0.6; Binding of Control serum LUMC to linear peptides [4]: 0.6; Binding of Control serum LUMC to looped peptides [4]: 0.7 |
| GMEVTPSGTWLTYHG | 0.1 | 0.4 | 0.3 | 0.4 | 0.1 | 0.2 | 0.1 | 0.4 | 0.2 | 0.3 | 0.5 | 0.7 | 0.6 | 0.8 | 0.5 | 0.5 | 0.4 | 0.5 | 0.1 | 0.2 | Binding of serum SARS-green to linear peptides of protein N of SARS-CoV Urbani [2]: 0.2; Binding of serum SARS-yellow to linear peptides of protein N of SARS-CoV Urbani [2]: 0.7; Control Serum Blood-Bank Looped peptides [4]: 0.7; Control serum Blood-bank linear peptides [4]: 0.6; Control serum LUMC linear peptides [4]: 0.6; Control serum LUMC looped peptides [4]: 0.7 |
